{
  "source": "patent US6649398B2",
  "about": "“Method for inducing bacterial growth using autoinducers” (University of Leicester, priority 1997, dated 2003)",
  "key": {"Serratia marcescens": {"system": "Serratia marcescens", "test": "Growth response in serum-SAPI medium (CFU/ml)", "assay_type": "cell-based", "conditions": "control 8.5 × 10^7", "procedure": "(§1) Bacteria (approximately 50-500 cfu/ml) are inoculated into SAPI minimal medium (6.25 mM NH4NO3, 1.84 mM KH2PO4, 3.35 mM KCl, 1.01 mM MgSO4 and 2.77 mM glucose, pH 7.5) supplemented with 30% (v/v) adult bovine serum (Sigma), and either 1% (v/v) previously made E.coli autoinducer or 50 mM norepinephrine.\n(§2) The cultures are grown statically (i.e. without aeration by shaking) for 24 hours at 37° C. in a 5% CO2 incubator.\n(§3) It has been shown that certain of these bacteria respond to norepinephrine (NE) and synthesise their own autoinducers, all of which are heat-stable low molecular weight molecules (less than 1000 Da) similar in size to the E. coli autoinducer (Table 4, FIG. 5)."}, "Enterobacter sakazaki": {"system": "Enterobacter sakazaki", "test": "Growth response in serum-SAPI medium (CFU/ml)", "assay_type": "cell-based", "conditions": "control 3.0 × 10^6", "procedure": "as §1, §2, §3"}, "[1]": {"system": "Salmonella enterica sv Enteriditis", "test": "Growth response in serum-SAPI medium (CFU/ml)", "assay_type": "cell-based", "conditions": "control 7.5 × 10^5", "procedure": "as §1, §2, §3"}, "Enterobacter cloacae": {"system": "Enterobacter cloacae", "test": "Growth response in serum-SAPI medium (CFU/ml)", "assay_type": "cell-based", "conditions": "control 7.2 × 10^6", "procedure": "as §1, §2, §3"}, "Yersinia entercolitica": {"system": "Yersinia entercolitica", "test": "Growth response in serum-SAPI medium (CFU/ml)", "assay_type": "cell-based", "conditions": "control 4.2 × 10^4", "procedure": "as §1, §2, §3"}, "Citrobacter freundii": {"system": "Citrobacter freundii", "test": "Growth response in serum-SAPI medium (CFU/ml)", "assay_type": "cell-based", "conditions": "control 1.9 × 10^6", "procedure": "as §1, §2, §3"}, "Klebsiella oxytoca": {"system": "Klebsiella oxytoca", "test": "Growth response in serum-SAPI medium (CFU/ml)", "assay_type": "cell-based", "conditions": "control 4.2 × 10^4", "procedure": "as §1, §2, §3"}, "Pseudomonas aeruginosa": {"system": "Pseudomonas aeruginosa", "test": "Growth response in serum-SAPI medium (CFU/ml)", "assay_type": "cell-based", "conditions": "control 3.7 × 10^4", "procedure": "as §1, §2, §3"}, "Listeria monocytogenes": {"system": "Listeria monocytogenes", "test": "Growth response in serum-SAPI medium (CFU/ml)", "assay_type": "cell-based", "conditions": "control 2.5 × 10^5", "procedure": "as §1, §2, §3"}, "Enterobacter agglomerans": {"system": "Enterobacter agglomerans", "test": "Growth response in serum-SAPI medium (CFU/ml)", "assay_type": "cell-based", "conditions": "control 2.9 × 10^4", "procedure": "as §1, §2, §3"}, "Morganella morganii": {"system": "Morganella morganii", "test": "Growth response in serum-SAPI medium (CFU/ml)", "assay_type": "cell-based", "conditions": "control 3.7 × 10^4", "procedure": "as §1, §2, §3"}, "Enterococcus faecalis": {"system": "Enterococcus faecalis", "test": "Growth response in serum-SAPI medium (CFU/ml)", "assay_type": "cell-based", "conditions": "control 5.0 × 10^5", "procedure": "as §1, §2, §3"}, "Klebsiella pneumoniae": {"system": "Klebsiella pneumoniae", "test": "Growth response in serum-SAPI medium (CFU/ml)", "assay_type": "cell-based", "conditions": "control 3.1 × 10^4", "procedure": "as §1, §2, §3"}, "Streptococcus sanguis": {"system": "Streptococcus sanguis", "test": "Growth response in serum-SAPI medium (CFU/ml)", "assay_type": "cell-based", "conditions": "control 2.1 × 10^4", "procedure": "as §1, §2, §3"}, "Staphylococcus aureus": {"system": "Staphylococcus aureus", "test": "Growth response in serum-SAPI medium (CFU/ml)", "assay_type": "cell-based", "conditions": "control 3.2 × 10^5", "procedure": "as §1, §2, §3"}, "Enterobacter aerogenes": {"system": "Enterobacter aerogenes", "test": "Growth response in serum-SAPI medium (CFU/ml)", "assay_type": "cell-based", "conditions": "control 3.2 × 10^8", "procedure": "as §1, §2, §3"}, "Acinetobacter lwoffii": {"system": "Acinetobacter lwoffii", "test": "Growth response in serum-SAPI medium (CFU/ml)", "assay_type": "cell-based", "conditions": "control 1.0 × 10^4", "procedure": "as §1, §2, §3"}, "Escherichia coli": {"system": "Escherichia coli", "test": "Growth response in serum-SAPI medium (CFU/ml)", "assay_type": "cell-based", "conditions": "control 7.5 × 10^4", "procedure": "as §1, §2, §3"}, "Enterococcus faecium": {"system": "Enterococcus faecium", "test": "Growth response in serum-SAPI medium (CFU/ml)", "assay_type": "cell-based", "conditions": "control 2.1 × 10^5", "procedure": "as §1, §2, §3"}, "Proteus mirabilis": {"system": "Proteus mirabilis", "test": "Growth response in serum-SAPI medium (CFU/ml)", "assay_type": "cell-based", "conditions": "control 1.1 × 10^3", "procedure": "as §1, §2, §3"}, "[2]": {"system": "Streptococcus dysgalactiae", "test": "Growth response in serum-SAPI medium (CFU/ml)", "assay_type": "cell-based", "conditions": "control 2.0 × 10^7", "procedure": "as §1, §2, §3"}, "Staphylococcus albus": {"system": "Staphylococcus albus", "test": "Growth response in serum-SAPI medium (CFU/ml)", "assay_type": "cell-based", "conditions": "control 1.1 × 10^3", "procedure": "as §1, §2, §3"}, "Xanthomonas maltophilia": {"system": "Xanthomonas maltophilia", "test": "Growth response in serum-SAPI medium (CFU/ml)", "assay_type": "cell-based", "conditions": "control 1.7 × 10^5", "procedure": "as §1, §2, §3"}, "Hafnia alvei": {"system": "Hafnia alvei", "test": "Growth response in serum-SAPI medium (CFU/ml)", "assay_type": "cell-based", "conditions": "control 1.2 × 10^4", "procedure": "as §1, §2, §3"}, "bacteria": {"system": "bacteria", "test": "Growth stimulation assay (serum assay)", "assay_type": "cell-based", "conditions": "for Stimulation of growth and autoinducer production in serum assay: equivalent mM concentrations"}, "[3]": {"conditions": "cited from earlier work"}},
  "data": [
    {"smiles": "NC[C@H](O)c1ccc(O)c(O)c1", "note": "[NE, norepinephrine]", "values": [
      {"measurement": "Response (growth), CFU/ml", "setting": "Serratia marcescens", "value": "3.4 × 10^8 CFU/ml"},
      {"measurement": "Response (growth), CFU/ml", "setting": "Enterobacter sakazaki", "value": "4.1 × 10^7 CFU/ml"},
      {"measurement": "Response (growth), CFU/ml", "setting": "[1]", "value": "1.0 × 10^8 CFU/ml"},
      {"measurement": "Response (growth), CFU/ml", "setting": "Enterobacter cloacae", "value": "1.1 × 10^8 CFU/ml"},
      {"measurement": "Response (growth), CFU/ml", "setting": "Yersinia entercolitica", "value": "1.7 × 10^8 CFU/ml"},
      {"measurement": "Response (growth), CFU/ml", "setting": "Citrobacter freundii", "value": "3.5 × 10^7 CFU/ml"},
      {"measurement": "Response (growth), CFU/ml", "setting": "Klebsiella oxytoca", "value": "1.6 × 10^8 CFU/ml"},
      {"measurement": "Response (growth), CFU/ml", "setting": "Pseudomonas aeruginosa", "value": "2.1 × 10^7 CFU/ml"},
      {"measurement": "Response (growth), CFU/ml", "setting": "Listeria monocytogenes", "value": "3.5 × 10^6 CFU/ml"},
      {"measurement": "Response (growth), CFU/ml", "setting": "Enterobacter agglomerans", "value": "6.1 × 10^6 CFU/ml"},
      {"measurement": "Response (growth), CFU/ml", "setting": "Morganella morganii", "value": "1.6 × 10^7 CFU/ml"},
      {"measurement": "Response (growth), CFU/ml", "setting": "Enterococcus faecalis", "value": "5.5 × 10^6 CFU/ml"},
      {"measurement": "Response (growth), CFU/ml", "setting": "Klebsiella pneumoniae", "value": "6.7 × 10^7 CFU/ml"},
      {"measurement": "Response (growth), CFU/ml", "setting": "Streptococcus sanguis", "value": "1.1 × 10^4 CFU/ml"},
      {"measurement": "Response (growth), CFU/ml", "setting": "Staphylococcus aureus", "value": "5.7 × 10^5 CFU/ml"},
      {"measurement": "Response (growth), CFU/ml", "setting": "Enterobacter aerogenes", "value": "5.5 × 10^8 CFU/ml"},
      {"measurement": "Response (growth), CFU/ml", "setting": "Acinetobacter lwoffii", "value": "2.9 × 10^7 CFU/ml"},
      {"measurement": "Response (growth), CFU/ml", "setting": "Escherichia coli", "value": "5.9 × 10^8 CFU/ml"},
      {"measurement": "Response (growth), CFU/ml", "setting": "Enterococcus faecium", "value": "5.6 × 10^6 CFU/ml"},
      {"measurement": "Response (growth), CFU/ml", "setting": "Proteus mirabilis", "value": "1.0 × 10^7 CFU/ml"},
      {"measurement": "Response (growth), CFU/ml", "setting": "[2]", "value": "2.4 × 10^6 CFU/ml"},
      {"measurement": "Response (growth), CFU/ml", "setting": "Staphylococcus albus", "value": "1.5 × 10^7 CFU/ml"},
      {"measurement": "Response (growth), CFU/ml", "setting": "Xanthomonas maltophilia", "value": "2.1 × 10^6 CFU/ml"},
      {"measurement": "Response (growth), CFU/ml", "setting": "Hafnia alvei", "value": "3.7 × 10^8 CFU/ml"}
    ]},
    {"smiles": "CCN(CC)CC.O=C(O)O", "note": "[TEAB, triethylammonium bicarbonate]", "values": [
      {"measurement": "Inhibition in the growth stimulation assays", "setting": "bacteria; concentrations up to 20 mM", "value": "not inhibitory"}
    ]},
    {"smiles": "CC(=O)O", "note": "[acetate]", "values": [
      {"measurement": "Stimulation of growth and autoinducer production in serum assay", "setting": "bacteria", "value": "not"}
    ]},
    {"smiles": "Cl.N", "note": "[ammonium chloride]", "values": [
      {"measurement": "Stimulation of growth and autoinducer production in serum assay", "setting": "bacteria", "value": "not"}
    ]},
    {"smiles": "N.N.O=S(=O)(O)O", "note": "[ammonium sulfate]", "values": [
      {"measurement": "Stimulation of growth and autoinducer production in serum assay", "setting": "bacteria", "value": "can stimulate growth and autoinducer production"}
    ]},
    {"smiles": "O=C(O)O", "note": "[bicarbonate]", "values": [
      {"measurement": "Stimulation of growth and autoinducer production in serum assay", "setting": "bacteria", "value": "not"}
    ]},
    {"smiles": "O=C(N[C@H]1COC(=O)[C@@H](NC(=O)c2cccc(O)c2O)COC(=O)[C@@H](NC(=O)c2cccc(O)c2O)COC1=O)c1cccc(O)c1O", "note": "[enterochelin]", "values": [
      {"measurement": "Solubility in organic solvents", "setting": "[3]", "value": "soluble in organic solvents"}
    ]},
    {"smiles": "O=CO", "note": "[formate]", "values": [
      {"measurement": "Stimulation of growth and autoinducer production in serum assay", "setting": "bacteria", "value": "not"}
    ]}
  ]
}
